# According to patent publication US9801961B2, “2-phenylimidazo[1,2-a]pyrimidines as imaging agents” (Hoffmann-La Roche Inc., priority 2013, dated 2017):
# Tested on: native tau aggregates
# Assay: TAU radioligand in vitro displacement assay ([3H]T808 autoradiography on human AD brain sections)
# Format: binding
# Conditions: compound 10 nM, radioligand [3H]T808 10 nM, 50 mM Tris pH 7.4, room temperature, 30 min
# Outline: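 Human AD brain cryosections (10 μm) co-incubated with [3H]T808 (10 nM) and test compound at various concentrations in 50 mM Tris pH 7.4, 30 min at room temperature, then washed at 4° C. Autoradiography after 5-day plate exposure. % displacement from ROI specific binding, white-matter signal subtracted as non-specific; cold T808 internal control.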
row,SMILES,% displacement of [3H]T808 (10 nM) at 10 nM
1,"CN(C)c1ccc(-c2cn3ccc(N4CCC(F)CC4)nc3n2)cc1 [Example 91, 4-[7-(4-Fluoropiperidin-1-yl)imidazo[1,2-a]pyrimidin-2-yl]-N,N-dimethylaniline]",15%
2,"CN(C)c1ccc(-c2cn3ccc(N(C)CCF)nc3n2)cc1 [Example 92, 2-[4-(Dimethylamino)phenyl]-N-(2-fluoroethyl)-N-methylimidazo[1,2-a]pyrimidin-7-amine]",27%
3,"COc1ccc(-c2cn3ccc(N(C)C4CC4)nc3n2)cc1 [Example 93, N-Cyclopropyl-2-(4-methoxyphenyl)-N-methylimidazo[1,2-a]pyrimidin-7-amine]",42%
4,"Cc1ccc(-c2cn3ccc(N4CCC4)nc3n2)cc1 [Example 94, 7-(Azetidin-1-yl)-2-(4-methylphenyl)imidazo[1,2-a]pyrimidine]",15%
5,"Cc1cccc(-c2cn3ccc(N4CCC4)nc3n2)c1 [Example 95, 7-(Azetidin-1-yl)-2-(3-methylphenyl)imidazo[1,2-a]pyrimidine]",38%
6,"CN(C)c1ccc(-c2cn3ccc(NCCF)nc3n2)cc1 [Example 96, 2-[4-(Dimethylamino)phenyl]-N-(2-fluoroethyl)imidazo[1,2-a]pyrimidin-7-amine]",34%
7,"FCOc1ccc(-c2cn3ccc(N4CCC4)nc3n2)cc1 [Example 97, 7-(Azetidin-1-yl)-2-[4-(fluoromethoxy)phenyl]imidazo[1,2-a]pyrimidine]",30%
8,"CNc1ccn2cc(-c3ccc(O)c(OC)c3)nc2n1 [Example 98, 2-Methoxy-4-[7-(methylamino)imidazo[1,2-a]pyrimidin-2-yl]phenol]",18%
9,"CNc1ccn2cc(-c3cccc(Br)c3)nc2n1 [Example 99, 2-(3-Bromophenyl)-N-methylimidazo[1,2-a]pyrimidin-7-amine]",27%
10,"FC1CCN(c2ccn3cc(-c4cnccn4)nc3n2)CC1 [Example 106, 7-(4-Fluoropiperidin-1-yl)-2-(pyrazin-2-yl)imidazo[1,2-a]pyrimidine]",20%
11,"CNc1ccn2cc(-c3ccc(CO)cc3)nc2n1 [Example 107, [4-[7-(Methylamino)imidazo[1,2-a]pyrimidin-2-yl]phenyl]methanol acetic acid adduct]",23%
12,"CNc1ccn2cc(-c3ccc(OC)c(F)c3)nc2n1 [Example 108, 2-(3-Fluoro-4-methoxyphenyl)-N-methylimidazo[1,2-a]pyrimidin-7-amine]",36%
13,"CNc1ccn2cc(-c3ccc(NC(C)=O)cc3)nc2n1 [Example 109, N-(4-(7-(Methylamino)imidazo[1,2-a]pyrimidin-2-yl)phenyl)acetamide]",30%
14,"CNc1ccn2cc(-c3ccc4c(c3)CC(=O)N4)nc2n1 [Example 110, 5-(7-(Methylamino)imidazo[1,2-a]pyrimidin-2-yl)indolin-2-one]",18%
15,"FCCOc1ccc(-c2cn3ccc(N4CCC4)nc3n2)cc1 [Example 111, 7-(Azetidin-1-yl)-2-(4-(2-fluoroethoxy)phenyl)imidazo[1,2-a]pyrimidine]",25%
16,"FCCCOc1ccc(-c2cn3ccc(N4CCC4)nc3n2)cc1 [Example 112, 7-(Azetidin-1-yl)-2-(4-(3-fluoropropoxy)phenyl)imidazo[1,2-a]pyrimidine]",15%
17,"COc1cccc(-c2cn3ccc(N4CCC4)nc3n2)c1 [Example 113, 7-(Azetidin-1-yl)-2-(3-methoxyphenyl)imidazo[1,2-a]pyrimidine]",36%

row,SMILES,% displacement of [3H]T808 (10 nM) at 10 nM
1,"CNc1ccn2cc(-c3cccc(CO)c3)nc2n1 [Example 114, [3-[7-(Methylamino)imidazo[1,2-a]pyrimidin-2-yl]phenyl]methanol acetic acid adduct]",11%
2,"FCCOc1cccc(-c2cn3ccc(N4CCC4)nc3n2)c1 [Example 115, 7-(Azetidin-1-yl)-2-(3-(2-fluoroethoxy)phenyl)imidazo[1,2-a]pyrimidine]",5%
3,"COc1ccc(-c2cn3ccc(N(CCF)C4CC4)nc3n2)cc1 [Example 116, N-Cyclopropyl-N-(2-fluoroethyl)-2-(4-methoxyphenyl)imidazo[1,2-a]pyrimidin-7-amine]",9%
4,"CNc1ccn2cc(-c3cccc(OC)c3)nc2n1 [Example 117, 2-(3-Methoxyphenyl)-N-methylimidazo[1,2-a]pyrimidin-7-amine]",40%
5,"FCOc1cccc(-c2cn3ccc(N4CCC4)nc3n2)c1 [Example 118, 7-(Azetidin-1-yl)-2-(3-(fluoromethoxy)phenyl)imidazo[1,2-a]pyrimidine]",23%
6,"Fc1ccc(-c2cn3ccc(N4CCC4)nc3n2)cc1 [Example 119, 7-(Azetidin-1-yl)-2-(4-fluorophenyl)imidazo[1,2-a]pyrimidine]",22%
7,"Fc1cccc(-c2cn3ccc(N4CCC4)nc3n2)c1 [Example 120, 7-(Azetidin-1-yl)-2-(3-fluorophenyl)imidazo[1,2-a]pyrimidine]",22%
8,"COc1cc(OC)cc(-c2cn3ccc(N4CCC4)nc3n2)c1 [Example 121, 7-(Azetidin-1-yl)-2-(3,5-dimethoxyphenyl)imidazo[1,2-a]pyrimidine]",5%
9,"CNc1ccn2cc(-c3ccc(O)cc3)nc2n1 [Example 122, 4-(7-(Methylamino)imidazo[1,2-a]pyrimidin-2-yl)phenol]",32%
10,"CNc1ccn2cc(-c3ccc(OCCF)cc3)nc2n1 [Example 123, 2-(4-(2-Fluoroethoxy)phenyl)-N-methylimidazo[1,2-a]pyrimidin-7-amine]",43%
11,"CNc1ccn2cc(-c3ccc(OCCCF)cc3)nc2n1 [Example 124, 2-(4-(3-Fluoropropoxy)phenyl)-N-methylimidazo[1,2-a]pyrimidin-7-amine]",40%
12,"CNc1ccn2cc(-c3cccc(O)c3)nc2n1 [Example 125, 3-(7-(Methylamino)imidazo[1,2-a]pyrimidin-2-yl)phenol]",16%
13,"CSc1cccc(-c2cn3ccc(N4CCC4)nc3n2)c1 [Example 126, 7-(Azetidin-1-yl)-2-(3-(methylthio)phenyl)imidazo[1,2-a]pyrimidine]",15%
14,"COc1cc(-c2cn3ccc(N4CCC4)nc3n2)ccc1C [Example 127, 7-(Azetidin-1-yl)-2-(3-methoxy-4-methylphenyl)imidazo[1,2-a]pyrimidine]",11%
15,"COc1ccc(-c2cn3ccc(N4CCC4)nc3n2)cc1OC [Example 128, 7-(Azetidin-1-yl)-2-(3,4-dimethoxyphenyl)imidazo[1,2-a]pyrimidine]",15%
16,"CNc1ccn2cc(-c3cccc(OCCF)c3)nc2n1 [Example 129, 2-(3-(2-Fluoroethoxy)phenyl)-N-methylimidazo[1,2-a]pyrimidin-7-amine]",16%
